Legend:
Experiment in all cases: competitive isoTOP-ABPP
Type in all cases: binding
Settings in all cases: 50 uM, in vitro
[1] = target: T1, GLOD4 Glyoxalase domain-containing protein 4 (Homo sapiens, UniProt Q9HC38)
T1 construct: endogenous in cells; host or cells: MDA-MB-231 (soluble fraction of lysate)
T1 sequence (Q9HC38 1-313): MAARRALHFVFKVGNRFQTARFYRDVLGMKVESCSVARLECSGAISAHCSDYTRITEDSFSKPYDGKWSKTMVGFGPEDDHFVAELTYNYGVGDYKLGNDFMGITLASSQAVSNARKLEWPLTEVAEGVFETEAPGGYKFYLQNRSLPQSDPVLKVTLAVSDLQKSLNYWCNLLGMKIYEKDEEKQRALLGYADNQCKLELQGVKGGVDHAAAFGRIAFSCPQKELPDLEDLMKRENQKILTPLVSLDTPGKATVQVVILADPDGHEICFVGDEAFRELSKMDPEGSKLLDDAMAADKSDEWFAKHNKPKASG
Summary of the method: (§1)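 Cell lysate (0.5 ml) was pre-treated with fragment, 50 μM for activated esters or 100 μM for guanidinylating agents, versus DMSO, then labeled 1 h at ambient temperature with 0.1 mM STP-alkyne. Light/heavy TEV tags attached by CuAAC; R = DMSO/compound MS1 peak-area ratio, median per lysine.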

CUL2 Cullin-2 = target: T2, CUL2 Cullin-2 (Homo sapiens, UniProt Q13617)
T2 construct: isoTOP-ABPP experiments performed in cell lysates (in vitro); endogenous in cells; host or cells: soluble proteome of human cancer cell lines (MDA-MB-231, Ramos, Jurkat)
T2 sequence (Q13617 whole entry): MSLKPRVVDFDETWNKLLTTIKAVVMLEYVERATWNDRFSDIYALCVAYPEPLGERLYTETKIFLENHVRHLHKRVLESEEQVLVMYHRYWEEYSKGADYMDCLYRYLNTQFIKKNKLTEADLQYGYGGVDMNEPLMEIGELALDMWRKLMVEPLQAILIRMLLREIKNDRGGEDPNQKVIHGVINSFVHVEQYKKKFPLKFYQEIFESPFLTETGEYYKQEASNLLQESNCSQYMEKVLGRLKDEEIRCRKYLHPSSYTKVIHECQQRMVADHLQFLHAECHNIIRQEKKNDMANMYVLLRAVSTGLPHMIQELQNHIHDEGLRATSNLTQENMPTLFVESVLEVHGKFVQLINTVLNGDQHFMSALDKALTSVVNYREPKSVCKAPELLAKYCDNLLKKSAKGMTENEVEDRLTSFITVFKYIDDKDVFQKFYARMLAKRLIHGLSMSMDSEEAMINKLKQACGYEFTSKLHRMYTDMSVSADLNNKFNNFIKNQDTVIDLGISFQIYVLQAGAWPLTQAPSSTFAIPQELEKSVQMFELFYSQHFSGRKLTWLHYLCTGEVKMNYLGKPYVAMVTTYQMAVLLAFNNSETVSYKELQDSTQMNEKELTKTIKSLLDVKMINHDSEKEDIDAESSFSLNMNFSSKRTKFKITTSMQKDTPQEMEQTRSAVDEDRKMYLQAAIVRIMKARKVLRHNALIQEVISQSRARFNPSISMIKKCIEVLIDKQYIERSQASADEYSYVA
Summary of the method: as §1

[2] = target: T3, PFKL 6-phosphofructokinase, liver type (Homo sapiens, UniProt P17858)
T3 construct: isoTOP-ABPP experiments performed in cell lysates (in vitro); endogenous in cells; host or cells: soluble proteome of human cancer cell lines (MDA-MB-231; Ramos and Jurkat also prepared)
T3 sequence (P17858 1-780): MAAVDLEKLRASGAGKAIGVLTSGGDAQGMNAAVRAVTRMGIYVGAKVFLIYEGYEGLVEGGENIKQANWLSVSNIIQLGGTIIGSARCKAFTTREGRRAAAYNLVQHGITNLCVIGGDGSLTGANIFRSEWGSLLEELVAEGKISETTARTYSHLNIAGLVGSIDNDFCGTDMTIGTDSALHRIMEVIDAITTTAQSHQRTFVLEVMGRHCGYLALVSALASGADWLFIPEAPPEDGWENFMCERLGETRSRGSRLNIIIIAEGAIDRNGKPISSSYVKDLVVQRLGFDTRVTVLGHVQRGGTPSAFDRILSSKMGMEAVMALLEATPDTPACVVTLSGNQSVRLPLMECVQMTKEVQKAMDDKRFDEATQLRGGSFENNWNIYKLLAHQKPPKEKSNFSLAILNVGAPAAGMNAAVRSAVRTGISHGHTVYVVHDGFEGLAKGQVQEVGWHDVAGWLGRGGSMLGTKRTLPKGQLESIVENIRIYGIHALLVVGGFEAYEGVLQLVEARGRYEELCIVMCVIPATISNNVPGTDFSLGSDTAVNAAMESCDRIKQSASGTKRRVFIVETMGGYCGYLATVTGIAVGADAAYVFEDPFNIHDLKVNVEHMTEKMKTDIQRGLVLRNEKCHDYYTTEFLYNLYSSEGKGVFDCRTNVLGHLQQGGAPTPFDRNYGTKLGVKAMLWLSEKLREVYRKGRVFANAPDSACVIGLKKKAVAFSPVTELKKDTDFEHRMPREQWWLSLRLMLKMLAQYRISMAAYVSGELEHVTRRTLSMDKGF
Summary of the method: as §1

O=C(Oc1c(F)c(F)c(F)c(F)c1F)c1ccc2ccccc2n1 [fragment 25, Pentafluorophenyl quinoline-2-carboxylate]
isoTOP-ABPP reactivity ratio at lysine Q9HC38_K305 ([1]; 231 sol): 0.4
isoTOP-ABPP reactivity ratio at lysine Q13617_K489 (CUL2 Cullin-2; 231 sol): 1.1
isoTOP-ABPP reactivity ratio at lysine P17858_K315 ([2]; 231 sol): 0.9
isoTOP-ABPP reactivity ratio at lysine P17858_K677 ([2]; 231 sol): 1.6
isoTOP-ABPP reactivity ratio at lysine P17858_K715 ([2]; 231 sol): 1.3

COc1cc(CCC(=O)Oc2c(F)c(F)c(F)c(F)c2F)cc(OC)c1OC [fragment 23, Pentafluorophenyl 3-(3,4,5-trimethoxyphenyl)propanoate]
R value (DMSO/fragment) for probe 1 labeling ([1]; Q9HC38_K305, 231 sol): 0.9
R value (DMSO/fragment) for probe 1 labeling (CUL2 Cullin-2; Q13617_K489, 231 sol): 0.9
R value (DMSO/fragment) for probe 1 labeling ([2]; P17858_K677, 231 sol): 1.8
R value (DMSO/fragment) for probe 1 labeling ([2]; P17858_K715, 231 sol): 0.6

O=C(Oc1ccc([N+](=O)[O-])cc1[N+](=O)[O-])c1ccc(Oc2ccccc2)cc1 [fragment 39, 2,4-Dinitrophenyl 4-phenoxybenzoate]
isoTOP-ABPP ratio (R) at liganded lysine Q9HC38_K305 ([1]; sol, 231): 0.8
isoTOP-ABPP ratio (R) at liganded lysine Q13617_K489 (CUL2 Cullin-2; sol, 231): 20.0
isoTOP-ABPP ratio (R) at liganded lysine P17858_K677 ([2]; sol, 231): 1.3
isoTOP-ABPP ratio (R) at liganded lysine P17858_K715 ([2]; sol, 231): 0.6

From patent publication US20210255193A1, “LYSINE REACTIVE PROBES AND USES THEREOF” (The Scripps Research Institute, priority 2017, published 2021)
